Read-outs that look alike come from different tables or passages of the source.
Legend:
[1] = tested on: VDR signaling (Cyp24A1 mRNA) in C3H10T1/2 cells; test: Cyp24A1 mRNA up-regulation (qPCR) in C3H10T1/2 cells; type: cell-based, mouse; settings: 24 h, relative to DMSO (set to 1.0); for fold induction at 5 µM: Mus musculus, C3H 10T1/2, 5 μM with OHCs 5 μM; for Cyp24A1 mRNA (fold up-regulation): 5 μM with OHCs 5 μM
Procedure: (§1) The VD3 analogues were initially assessed for their ability to inhibit the Hh signaling pathway by evaluating the effects on endogenous Gli1 mRNA levels at a single concentration (5 μM) co-administration of oxysterols (OHCs; 20(S)-hydroxycholesterol, 22(S)-hydroxycholesterol at 5 μM each) in C3H10T1/2 cells, an Hh-dependent mouse embryonic fibroblast (MEF) cell line. […] VD3 derivatives may retain some VDR agonistic activity, thereby compromising the selectivity of these compounds as Hh inhibitors. The selectivity profile of the analogues for Hh inhibition, compared to typical VDR activation, was assessed by measuring the ability to up-regulate Cyp24a1 mRNA levels in the same cellular system and by evaluating their binding to VDR using a fluorescence polarization-based competition assay (Table 1).
(§2) Mouse embryonic fibroblast cell line (C3H10T1/2, wild-type, VDR^−/−, SuFu^−/−), mouse keratinocyte cell line (ASZ001), and human embryonic kidney cell line (HEK293T) were purchased from China Center for Type Culture Collection (CCTCC; Wuhan, Hubei, China) and cultured under standard protocols. […] Therefore, they can be used to assess the inhibitory strength of the Hh signaling and the selectivity of the VDR signaling. VDR^−/− and SuFu^−/− C3H10T1/2 cells were used to study compounds selectivity for Hh and VDR signaling. If compounds regulate Hh signaling independently of VDR, their ability to down-regulate Gli1 mRNA expression should be abolished in SuFu^−/− C3H10T1/2 cells. […] The loss of Ptch in ASZ001 cells […], so down-regulating Gli1 reflects direct Smo inhibition by the compound. Comparing results from ASZ001 and C3H10T1/2 cells highlights the compound’s inhibition of the Hh signaling pathway.
(§3) RNA isolation in C3H10T1/2 cells was performed in 24-well plates (50,000 cells plated; TRIZOL Reagent); in ASZ001, cells were done in 35 mm dishes (300,000 cells plated; TRIZOL Reagent). cDNA synthesis was performed utilizing the SweScript All-in-One RT SuperMix Kit (Servicebio, Wuhan, China) per the manufacturer’s instructions on a BioRad S1000 Thermal Cycler (Hercules, CA, USA). qPCR (Hh signaling pathway and VDR) analysis of target genes was performed on Step OnePlus (ABI) using the Taqman Gene Expression Assays: mouse ActB (Mm00607939_s1), mouse GLI1 (Mm00494645_ml), mouse PTCH1(Mm00436026_m1), and mouse CYP24A1 (Mm00487244_ml). Relative gene expression levels were computed via the ΔΔCt method. ActinB mRNA expression levels of all samples were normalized to DMSO control ActinB mRNA levels (vehicle; set at 1.00). […] The mRNA expression levels from drug-treated samples were compared to OHCs levels (Gli1, PTCH) and DMSO control (Cyp24A1).

recombinant VDR = target: T1, recombinant VDR (Homo sapiens, UniProt P11473); test: VDR binding, fluorescence polarization-based competition assay (PolarScreen VDR Competitor Assay Red); settings: compounds evaluated at 100 μM
T1 construct: purchased Thermo Fisher Scientific
T1 sequence (P11473 1-427): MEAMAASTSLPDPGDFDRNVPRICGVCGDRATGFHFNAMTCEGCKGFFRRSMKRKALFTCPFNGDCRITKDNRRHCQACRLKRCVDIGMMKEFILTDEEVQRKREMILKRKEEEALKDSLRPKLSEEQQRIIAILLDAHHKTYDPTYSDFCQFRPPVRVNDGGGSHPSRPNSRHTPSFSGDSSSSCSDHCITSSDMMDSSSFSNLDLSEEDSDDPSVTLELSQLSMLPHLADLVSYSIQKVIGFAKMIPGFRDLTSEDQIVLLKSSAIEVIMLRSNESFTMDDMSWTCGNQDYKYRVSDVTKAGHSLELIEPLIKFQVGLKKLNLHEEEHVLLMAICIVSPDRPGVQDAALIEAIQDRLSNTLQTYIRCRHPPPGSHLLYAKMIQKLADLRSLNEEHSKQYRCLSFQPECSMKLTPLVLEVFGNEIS
Procedure: as §1
VDR binding assay was performed using a PolarScreen VDR Competitor Assay Red kit (Thermo Fisher Scientific, Carlsbad, CA, USA) per the manufacturer’s instructions. Compounds were evaluated at 100 μM in 2.5% final DMSO in triplicate. Calcitriol is utilized as a positive control for VDR binding.

[2] = tested on: Hh signaling pathway (Gli1 mRNA) in C3H10T1/2 cells; test: Gli1 mRNA down-regulation (qPCR) in OHC-stimulated C3H10T1/2 cells; type: cell-based, mouse; settings: for mrna remaining at 5 µM / IC50: Mus musculus; for mrna remaining at 5 µM: C3H 10T1/2, 5 μM with OHCs 5 μM; for mrna remaining at 5 µM / Gli1 mRNA (%): 24 h, relative Gli1 mRNA levels compared to OHCs (set to 100%); for IC50: C3H 10T1/2, mean ± SEM; for Gli1 mRNA (%): 5 μM with OHCs 5 μM
Procedure: as §1, §2, §3

[3] = tested on: primary Ptch-CKO MB cells; test: Anti-proliferation (MTS) in primary Ptch-CKO MB cells; type: cell-based; settings: Mus musculus, 48 h incubation, mean ± SEM
Procedure: Ptch-CKO MB cells, derived from a conditional Patched knockout mouse, lack Ptch-like ASZ001 cells. Consequently, the inhibitory effect of the compound on Ptch-CKO MB cells directly reflects its suppression of the canonical Hh signaling pathway. Cell viability was assessed by MTS proliferation assay kit (Promega, Madison, WI, USA) according to the manufacturer’s protocol. Culture conditions and experimental protocols to determine GI50 values in the primary murine Ptch-CKO MB cells were as previously described.

ASZ001 cells = test: Anti-proliferation (MTS) in ASZ001 cells; type: cell-based; settings: Mus musculus, 48 h incubation, mean ± SEM
[4] = tested on: Hh signaling pathway (Gli1 mRNA) in ASZ001 cells; test: Gli1 mRNA down-regulation (qPCR) in ASZ001 cells; type: cell-based; settings: Mus musculus
Procedure: Mouse embryonic fibroblast cell line (C3H10T1/2, wild-type, VDR^−/−, SuFu^−/−), mouse keratinocyte cell line (ASZ001), and human embryonic kidney cell line (HEK293T) were purchased from China Center for Type Culture Collection (CCTCC; Wuhan, Hubei, China) and cultured under standard protocols [16]. […] The loss of Ptch in ASZ001 cells prevents Smo inhibition, so down-regulating Gli1 reflects direct Smo inhibition by the compound.
(§4) RNA isolation in C3H10T1/2 cells was performed in 24-well plates (50,000 cells plated; TRIZOL Reagent); in ASZ001, cells were done in 35 mm dishes (300,000 cells plated; TRIZOL Reagent). cDNA synthesis was performed utilizing the SweScript All-in-One RT SuperMix Kit (Servicebio, Wuhan, China) per the manufacturer’s instructions on a BioRad S1000 Thermal Cycler (Hercules, CA, USA). qPCR (Hh signaling pathway and VDR) analysis of target genes was performed on Step OnePlus (ABI) using the Taqman Gene Expression Assays [18, 29]: mouse ActB (Mm00607939_s1), mouse GLI1 (Mm00494645_ml), mouse PTCH1(Mm00436026_m1), and mouse CYP24A1 (Mm00487244_ml). Relative gene expression levels were computed via the ΔΔCt method. ActinB mRNA expression levels of all samples were normalized to DMSO control ActinB mRNA levels (vehicle; set at 1.00). […] The mRNA expression levels from drug-treated samples were compared to OHCs levels (Gli1, PTCH) and DMSO control (Cyp24A1).

[5] = tested on: Hh signaling pathway (Ptch mRNA) in C3H10T1/2 cells; test: Ptch mRNA down-regulation (qPCR) in C3H10T1/2 cells; type: cell-based; settings: Mus musculus
Procedure: as §4

[6] = tested on: VDR signaling (Cyp24A1 mRNA) in ASZ001 cells; test: Cyp24A1 mRNA expression (qPCR) in ASZ001 cells; type: cell-based; settings: Mus musculus, read-out: Cyp24A1 mRNA levels relative to DMSO
Procedure: as §4

SMILES | fold induction at 5 µM [1] | VDR Binding (recombinant VDR) | mrna remaining at 5 µM [2] | other results
C[C@H](COCC(C)(C)O)[C@H]1CC[C@H]2[C@@H](OC(=O)c3ccc(O)cc3)CCC[C@]12C [Compound 4j] | 127 ± 20.5 | >100 µM | 4.6 ± 0.8% | GI50 [3]: > 10 µM; GI50 (ASZ001 cells): > 20 µM
CC(C)COC[C@@H](C)[C@H]1CC[C@H]2[C@@H](OC(=O)c3ccc(F)cc3)CCC[C@]12C [Compound 3f] | 46.5 ± 3.4 | >100 µM | 45.4 ± 3.1% | –
COc1ccc(C(=O)O[C@H]2CCC[C@]3(C)[C@@H]([C@H](C)COCC(C)C)CC[C@@H]23)cc1 [Compound 3c] | 36.7 ± 2.9 | >100 µM | 89.6 ± 4.3% | –
CC(C)COC[C@@H](C)[C@H]1CC[C@H]2[C@@H](OC(=O)c3cc([N+](=O)[O-])cc([N+](=O)[O-])c3)CCC[C@]12C [Compound 3g] | 9.8 ± 1.4 | >100 µM | 32.1 ± 2.4% | –
C[C@H](COCC(C)(C)O)[C@H]1CC[C@H]2[C@@H](OC(=O)c3cccc(O)c3)CCC[C@]12C [Compound 4h] | 87.4 ± 13.7 | >100 µM | 3.8 ± 0.4% | IC50 ([4]; ASZ001 cells, mean ± SEM, read-out: Gli1 IC50): 4.1 ± 0.5 µM; IC50 ([5]; C3H 10T1/2, C3H10T1/2 cells, mean ± SEM, read-out: Ptch IC50): 5.7 ± 0.5 µM; fold induction at 5 µM ([6]; ASZ001 cells, 5 μM, 24 h, DMSO set to 1.0): 60.3 ± 6.4; IC50 [2]: 2.8 ± 0.2 µM; GI50 [3]: > 10 µM; GI50 (ASZ001 cells): > 20 µM
CC(C)COC[C@@H](C)[C@H]1CC[C@H]2[C@@H](OC(=O)c3ccc([N+](=O)[O-])cc3)CCC[C@]12C [Compound 3b] | 24.6 ± 2.1 | >100 µM | 74.2 ± 4.1% | –
C[C@H](COCC(C)(C)O)[C@H]1CC[C@H]2[C@@H](OC(=O)c3cc([N+](=O)[O-])cc([N+](=O)[O-])c3)CCC[C@]12C [Compound 4f] | 131 ± 19.7 | >100 µM | 30.7 ± 2.5% | –
C=C1CC[C@H](O)C/C1=C/C=C1\CCC[C@]2(C)[C@@H]([C@H](C)CCCC(C)C)CC[C@@H]12 [VD3, Vitamin D3] | 8350 ± 102 | >100 µM | 32.5 ± 0.6% | IC50 ([4]; ASZ001, read-out: Gli1 IC50): 2.1 ± 0.2 µM; IC50 ([5]; C3H 10T1/2, read-out: Ptch IC50): 3.3 ± 0.4 µM; fold induction at 5 µM ([6]; ASZ001, 24 h): 821 ± 26.3; IC50 [2]: 4.2 ± 0.4 µM; GI50 [3]: 6.4 ± 0.7 µM; GI50 (ASZ001 cells): 15.6 ± 1.7 µM
CC(C)COC[C@@H](C)[C@H]1CC[C@H]2[C@@H](OC(=O)c3ccc(Cl)cc3)CCC[C@]12C [Compound 3e] | 67.8 ± 4.8 | >100 µM | 23.5 ± 2.7% | –
C[C@H](COCC(C)(C)O)[C@H]1CC[C@H]2[C@@H](O)CCC[C@]12C [Compound 2b] | 76.8 ± 6.3 | >100 µM | 42.7 ± 3.4% | Cyp24A1 mRNA (fold up-regulation) [1]: weak; Gli1 mRNA (%) [2]: comparable to that of VD3
CC(C)COC[C@@H](C)[C@H]1CC[C@H]2[C@@H](OC(=O)c3ccccc3)CCC[C@]12C [Compound 3a] | 35.7 ± 2.6 | >100 µM | 56.8 ± 3.5% | –
C[C@H](COCC(C)(C)O)[C@H]1CC[C@H]2[C@@H](OC(=O)c3ccc([N+](=O)[O-])cc3)CCC[C@]12C [Compound 4b] | 92.7 ± 15.9 | >100 µM | 54.6 ± 3.8% | –
COc1ccc(C(=O)O[C@H]2CCC[C@]3(C)[C@@H]([C@H](C)COCC(C)(C)O)CC[C@@H]23)cc1 [Compound 4c] | 120 ± 18.6 | >100 µM | 76.5 ± 7.5% | –
CC(C)COC[C@@H](C)[C@H]1CC[C@H]2[C@@H](O)CCC[C@]12C [Compound 2a] | 1.6 ± 0.3 | >100 µM | 36.8 ± 3.6% | Cyp24A1 mRNA (fold up-regulation) [1]: weak; Gli1 mRNA (%) [2]: comparable to that of VD3
COc1cccc(C(=O)O[C@H]2CCC[C@]3(C)[C@@H]([C@H](C)COCC(C)(C)O)CC[C@@H]23)c1 [Compound 4d] | 86.8 ± 11.3 | >100 µM | 62.3 ± 4.8% | –
C[C@H](COCC(C)(C)O)[C@H]1CC[C@H]2[C@@H](OC(=O)c3ccccc3)CCC[C@]12C [Compound 4a] | 94.6 ± 12.7 | >100 µM | 43.8 ± 3.6% | –
C[C@H](COCC(C)(C)O)[C@H]1CC[C@H]2[C@@H](OC(=O)c3ccc(Cl)cc3)CCC[C@]12C [Compound 4e] | 105 ± 21.4 | >100 µM | 26.1 ± 2.1% | –
COc1cccc(C(=O)O[C@H]2CCC[C@]3(C)[C@@H]([C@H](C)COCC(C)C)CC[C@@H]23)c1 [Compound 3d] | 13.5 ± 1.1 | >100 µM | 102 ± 8.4% | –
